Key:
MCF7 = experiment: Antiproliferative activity against human MCF7 cells assessed as cell viability incubated for 72 hrs by MTT assay; type: functional, cell-based; settings: MCF7, 72 h
HepG2 = experiment: Antiproliferative activity against human HepG2 cells assessed as cell viability incubated for 72 hrs by MTT assay; type: functional, cell-based; settings: HepG2, 72 h
HT-29 [1] = experiment: Inhibition of colony formation in human HT-29 cells; type: functional, cell-based; settings: dose 25-200 nM
HT-29 [2] = experiment: Induction of apoptosis in human HT-29 cells assessed as necrotic cells at 50 nM incubated for 24 hrs by FITC/PI staining based flow cytometry analysis (reference value: 0.017 %); type: functional
[3] = Toxicity in ICR mouse assessed as effect on CREA level at 10 to 40 mg/kg, iv administered every 2 days and measured after 14 days; type: organism-based; settings: in vivo, 336 h, dose 10-40 mg/kg, time 14 day

IC50 (MCF7): 110 nM
IC50 (HepG2): 190 nM
Structure (SMILES): COc1ccc(N(C)c2nc(/C=C/c3cccc(OC)c3)nc3ccccc23)cc1
inhibition (HT-29 [1]): Dose-dependent-effect
Activity (HT-29 [2]): 1.79%
Activity [3]: Non-toxic

Reference: ChEMBL document CHEMBL6092217 (Eur J Med Chem, 2024)
